Reference: paper PMC5428354, “Screening of a natural compound library identifies emodin, a natural compound from Rheum palmatum Linn that inhibits DPP4” (PeerJ, 2017)
Values joined by “and” are separate entries in the source; they are usually repeats but may differ in a detail not shown here. Equal entries are not always repeated. Where two headings read alike, the source gives them in different places.

Columns and labels:
Type in all cases: biochemical
[1] = target: DPP4 (Homo sapiens, UniProt P27487); experiment: DPP4 activity assay (DPP4 inhibitor screening assay kit, Cayman); design: purchased Cayman Chemical, Ann Arbor, MI, USA; details: for Ki: DPP4; for Ki / IC50: means ± SE; for IC50: in vitro, read-out: IC50 of DPP4 Inhibition; for remaining activity at 10 µM: 0.5 h, control mean 100.0;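 for all read-outs here: fluorescence read at excitation 360 nm and emission 460 nm after the enzyme reaction ran 30 min at 37 °C in a 96-well plate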
[2] = target: T1, DPP9 (Homo sapiens, UniProt Q86TI2); experiment: DPP9 activity assay (BPS Bioscience kit); details: 100 µM, Well #1-#3; for DPP9 activity: DMSO = Ctrl;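 for DPP9 assay, Emission (450 nm): 20 ng DPP9 per 100 µl reaction with DPP substrate 1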
T1 construct: purchased BPS Bioscience 800209

[3] = target: DPP8 (Homo sapiens, UniProt Q6V1X1); experiment: DPP8 activity assay (BPS Bioscience kit); details: for DPP8 assay, Emission (450 nm) / DPP8 activity: 100 µM, Exp #1-#5; for DPP8 activity: DMSO = Ctrl;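 for DPP8 assay, Emission (450 nm): fluorescence read with excitation at 365 nm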
Description: A DPP8 assay kit was purchased from BPS Bioscience (Cat# 800208), and the assay protocol was followed to test for inhibitory activity on DPP8. Briefly, DPP substrate 1 was diluted to make a 100 µM stock solution, and DPP8 protein was diluted in DPP assay buffer to 2 ng/µl (20 ng/reaction). For the tested compounds, 10 µl of diluted DPP8 protein, 5 µl of diluted DPP substrate 1, 84 µl of DPP assay buffer and 1 µl of inhibitor were addedinto the assay system for a total volume of 100 µl. The reaction mixtures were prepared in duplicate on a 96-well plate and incubated at room temperature for 10 min. […]

[4] = Figure 1A raw data, read-out: DPP4 activity in library screen, Exp 1
[5] = Figure 1A raw data, read-out: DPP4 activity in library screen, Exp 2
[6] = Figure 1A raw data, read-out: DPP4 activity in library screen, Exp 3
[7] = mean of Exp 1-3, read-out: DPP4 activity in library screen, Mean

T1 sequence (Q86TI2 whole entry): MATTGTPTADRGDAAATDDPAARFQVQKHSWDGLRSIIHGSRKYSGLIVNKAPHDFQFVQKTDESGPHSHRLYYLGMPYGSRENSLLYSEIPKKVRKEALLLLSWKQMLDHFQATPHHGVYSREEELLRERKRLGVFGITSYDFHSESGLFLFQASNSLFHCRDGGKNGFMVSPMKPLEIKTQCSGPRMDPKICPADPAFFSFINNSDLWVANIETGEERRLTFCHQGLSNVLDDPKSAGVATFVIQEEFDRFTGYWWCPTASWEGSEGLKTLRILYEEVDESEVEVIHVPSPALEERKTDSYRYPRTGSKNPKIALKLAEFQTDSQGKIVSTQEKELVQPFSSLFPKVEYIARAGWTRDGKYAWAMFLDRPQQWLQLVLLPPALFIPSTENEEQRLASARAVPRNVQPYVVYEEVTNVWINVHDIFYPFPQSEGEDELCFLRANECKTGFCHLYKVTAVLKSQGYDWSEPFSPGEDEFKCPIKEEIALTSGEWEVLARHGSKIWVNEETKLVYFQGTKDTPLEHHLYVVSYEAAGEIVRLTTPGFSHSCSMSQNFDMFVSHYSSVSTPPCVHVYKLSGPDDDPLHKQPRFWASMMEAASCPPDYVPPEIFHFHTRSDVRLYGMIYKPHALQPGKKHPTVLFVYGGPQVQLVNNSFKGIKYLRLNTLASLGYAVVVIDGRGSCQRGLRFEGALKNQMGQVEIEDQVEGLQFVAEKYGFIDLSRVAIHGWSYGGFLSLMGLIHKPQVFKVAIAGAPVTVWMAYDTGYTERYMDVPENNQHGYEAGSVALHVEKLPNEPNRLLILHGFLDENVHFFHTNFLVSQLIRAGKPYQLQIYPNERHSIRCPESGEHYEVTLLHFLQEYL
Sequence of DPP8 (Q6V1X1 whole entry): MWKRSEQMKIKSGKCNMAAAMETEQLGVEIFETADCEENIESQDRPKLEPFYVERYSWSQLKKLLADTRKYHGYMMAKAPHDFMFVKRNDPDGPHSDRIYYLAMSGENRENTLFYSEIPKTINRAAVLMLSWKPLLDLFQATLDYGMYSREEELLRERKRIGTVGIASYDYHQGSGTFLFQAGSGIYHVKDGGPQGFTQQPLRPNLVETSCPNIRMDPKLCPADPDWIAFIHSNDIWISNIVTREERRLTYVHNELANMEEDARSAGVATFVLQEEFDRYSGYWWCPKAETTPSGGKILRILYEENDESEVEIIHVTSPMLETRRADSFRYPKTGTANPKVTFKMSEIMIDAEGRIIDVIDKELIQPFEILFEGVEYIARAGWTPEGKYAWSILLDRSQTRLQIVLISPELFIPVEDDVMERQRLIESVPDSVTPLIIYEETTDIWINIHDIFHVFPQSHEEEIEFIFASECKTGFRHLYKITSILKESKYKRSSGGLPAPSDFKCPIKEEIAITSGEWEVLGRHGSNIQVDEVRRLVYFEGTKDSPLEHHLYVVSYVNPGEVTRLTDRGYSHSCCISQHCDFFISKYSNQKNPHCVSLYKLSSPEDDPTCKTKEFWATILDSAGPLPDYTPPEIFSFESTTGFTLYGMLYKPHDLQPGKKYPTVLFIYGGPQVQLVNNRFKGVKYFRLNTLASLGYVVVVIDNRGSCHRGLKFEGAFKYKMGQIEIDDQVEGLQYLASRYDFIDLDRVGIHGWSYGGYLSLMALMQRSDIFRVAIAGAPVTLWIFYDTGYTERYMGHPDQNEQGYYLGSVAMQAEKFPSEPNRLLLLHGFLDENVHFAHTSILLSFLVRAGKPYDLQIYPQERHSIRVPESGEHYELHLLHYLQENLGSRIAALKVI
Sequence of DPP4 (P27487 whole entry): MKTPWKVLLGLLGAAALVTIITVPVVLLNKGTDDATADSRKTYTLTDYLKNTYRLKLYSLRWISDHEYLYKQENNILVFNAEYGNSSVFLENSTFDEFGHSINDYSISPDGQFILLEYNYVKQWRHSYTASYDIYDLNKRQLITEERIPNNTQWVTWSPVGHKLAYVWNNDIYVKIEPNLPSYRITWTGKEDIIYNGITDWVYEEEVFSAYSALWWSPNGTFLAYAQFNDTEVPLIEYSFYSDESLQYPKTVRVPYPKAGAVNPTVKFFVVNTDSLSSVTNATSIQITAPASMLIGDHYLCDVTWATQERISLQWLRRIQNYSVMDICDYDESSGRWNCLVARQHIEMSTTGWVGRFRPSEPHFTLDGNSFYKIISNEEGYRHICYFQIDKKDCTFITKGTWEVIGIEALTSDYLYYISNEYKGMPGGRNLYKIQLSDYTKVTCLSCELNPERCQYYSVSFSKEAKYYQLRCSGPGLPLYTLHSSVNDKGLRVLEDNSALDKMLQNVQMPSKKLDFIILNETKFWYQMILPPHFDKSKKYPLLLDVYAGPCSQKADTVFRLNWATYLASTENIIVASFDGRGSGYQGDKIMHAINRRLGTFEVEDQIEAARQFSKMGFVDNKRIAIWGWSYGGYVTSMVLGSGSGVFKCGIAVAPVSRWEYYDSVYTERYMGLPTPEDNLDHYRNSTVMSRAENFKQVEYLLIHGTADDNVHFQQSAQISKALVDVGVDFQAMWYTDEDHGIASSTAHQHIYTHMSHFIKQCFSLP

| SMILES | Ki [1] [µM] | IC50 [1] [µM] | DPP9 assay, Emission (450 nm) [2] | DPP9 activity [2] | DPP8 assay, Emission (450 nm) [3] | DPP8 activity [3] | remaining activity at 10 µM [1, 4] [%] | remaining activity at 10 µM [1, 5] [%] | remaining activity at 10 µM [1, 6] [%] | remaining activity at 10 µM [1, 7] [%] | IC50 [3] [µM] | activity against DPP8 ([3]; tested at 100 µM) |
| --- | --- | --- | --- | --- | --- | --- | --- | --- | --- | --- | --- | --- |
| O=C1c2cccc(O)c2C(=O)c2c(O)cc(CO)cc21 [Aloe-emodin] | 2.37 ± 0.62 | 16 ± 4.24 | 45255 and 48696 and 44751 | 92.9 % of Ctrl and 100.0 % of Ctrl and 91.9 % of Ctrl | 28333 and 31255 and 28705 and 40933 and 31387 | 59.6 % of Ctrl and 101.9 % of Ctrl and 112.4 % of Ctrl and 103.3 % of Ctrl and 77.7 % of Ctrl |  |  |  |  |  |  |
| Cc1cc(O)c2c(c1)C(=O)c1cccc(O)c1C2=O [Chrysophanol] |  | > 100 | 43157 and 48875 and 45154 | 88.6 % of Ctrl and 100.3 % of Ctrl and 92.7 % of Ctrl | 27057 and 31330 and 23865 and 45793 and 40995 | 77.8 % of Ctrl and 97.3 % of Ctrl and 112.7 % of Ctrl and 85.8 % of Ctrl and 86.9 % of Ctrl | 64.4 | 60 | 75 | 66.5 |  |  |
| O=C(O)c1cc(O)c2c(c1)C(=O)c1cccc(O)c1C2=O [Rhein] | 3.42 ± 0.53 | 23.1 ± 3.57 | 41706 and 44766 and 43536 | 85.6 % of Ctrl and 91.9 % of Ctrl and 89.4 % of Ctrl |  | 54.9 % of Ctrl and 47.9 % of Ctrl and 41.4 % of Ctrl and 44.7 % of Ctrl and 72.6 % of Ctrl |  |  |  |  | > 100 | very weak activity |
| COc1cc(O)c2c(c1)C(=O)c1cc(C)cc(O)c1C2=O [Rheochrysidin] |  |  | 49845 and 45873 and 51642 | 102.3 % of Ctrl and 94.2 % of Ctrl and 106.0 % of Ctrl |  | 78.2 % of Ctrl and 100.6 % of Ctrl and 89.5 % of Ctrl and 95.0 % of Ctrl and 106.4 % of Ctrl | 44.7 | 52.2 | 53.9 | 50.3 |  |  |
